Reference: ChEMBL document CHEMBL3739380, “Discovery of benzothiazoles as antimycobacterial agents: Synthesis, structure-activity relationships and binding studies with Mycobacterium tuberculosis decaprenylphosphoryl-β-D-ribose 2'-oxidase” (Bioorg Med Chem, 2015)
Converted amounts (≈) assume the structure as drawn.

Columns and labels:
[1] = Inhibition of Mycobacterium tuberculosis DprE1 using farnesyl-phosphoryl-beta-D-ribofuranose as substrate preincubated for 30 mins before substrate addition by peroxidase coupled assay
[2] = system: Mycobacterium tuberculosis; assay: Antimycobacterial activity against Mycobacterium tuberculosis H37Rv ATCC 27294 after 5 days by microdilution method; format: functional; details: H37Rv ATCC 27294, 120 h
Salmonella typhimurium [3] = assay: Genotoxicity in Salmonella typhimurium TA98 at 5000 ug/plate by Ames test in presence of S9 fraction; format: toxicity, organism-based; details: salmonella enterica subsp. enterica serovar typhimurium
Salmonella typhimurium [4] = assay: Genotoxicity in Salmonella typhimurium TA98 at 5000 ug/plate by Ames test in absence of S9 fraction; format: toxicity, organism-based; details: salmonella enterica subsp. enterica serovar typhimurium
Salmonella typhimurium [5] = assay: Genotoxicity in Salmonella typhimurium TA100 at 5000 ug/plate by Ames test in presence of S9 fraction; format: toxicity, organism-based; details: salmonella enterica subsp. enterica serovar typhimurium
Salmonella typhimurium [6] = assay: Genotoxicity in Salmonella typhimurium TA100 at 5000 ug/plate by Ames test in absence of S9 fraction; format: toxicity, organism-based; details: salmonella enterica subsp. enterica serovar typhimurium
[7] = system: Mycobacterium tuberculosis; assay: Antimycobacterial activity against Mycobacterium tuberculosis H37Rv ATCC 27294 infected in human THP1 cells assessed as log reduction CFU after 7 days by killing kinetic assay; format: functional, THP-1
[8] = system: Mycobacterium tuberculosis; assay: Antimycobacterial activity against Mycobacterium tuberculosis H37Rv ATCC 27294 infected in BMDM assessed as log reduction CFU after 7 days by killing kinetic assay; format: functional
Salmonella typhimurium [9] = assay: Genotoxicity in Salmonella typhimurium TA100 at 50 ug/plate by Ames test in absence of S9 fraction; format: toxicity, organism-based; details: salmonella enterica subsp. enterica serovar typhimurium
Salmonella typhimurium [10] = assay: Genotoxicity in Salmonella typhimurium TA98 at 500 ug/plate by Ames test in presence of S9 fraction; format: toxicity, organism-based; details: salmonella enterica subsp. enterica serovar typhimurium
Salmonella typhimurium [11] = assay: Genotoxicity in Salmonella typhimurium TA100 at 16 ug/plate by Ames test in presence of S9 fraction; format: toxicity, organism-based; details: salmonella enterica subsp. enterica serovar typhimurium
Salmonella typhimurium [12] = assay: Genotoxicity in Salmonella typhimurium TA98 at 500 ug/plate by Ames test in absence of S9 fraction; format: toxicity, organism-based; details: salmonella enterica subsp. enterica serovar typhimurium
[13] = system: Mycobacterium tuberculosis; assay: Antimycobacterial activity against Mycobacterium tuberculosis H37Rv ATCC 27294 after 2 to 3 weeks by turbidity assay; format: functional

Row | SMILES | IC50 [1] [µM] | MIC [2] [µg/mL] | other results
1 | O=C(O)c1cc(C(F)(F)F)cc2nc(C(=O)N3CCCCC3)sc12 | > 100 | > 32 | 
2 | O=C(c1nc2cc(C(F)(F)F)cc(B(O)O)c2s1)N1CCCCC1 |  | > 32 | 
3 | Cc1c(C(F)(F)F)cc2nc(C3=NCCO3)sc2c1[N+](=O)[O-] | 3.9 | 8 (≈ 24.1 µM) | Activity (Salmonella typhimurium [3]): Non-toxic; Activity (Salmonella typhimurium [4]): Non-toxic; Activity (Salmonella typhimurium [5]): Non-toxic; Activity (Salmonella typhimurium [6]): Non-toxic
4 | C[C@H](NC(=O)c1sc2c([N+](=O)[O-])cc(C(F)(F)F)cc2[n+]1[O-])C(=O)C1CCCC1 | 0.06 | 0.02 (≈ 0.0464 µM) | Activity [7]: 1 log10CFU/ml; Activity [8]: 1 log10CFU/ml
5 | O=C(c1nc2cc(C(F)(F)F)cc([N+](=O)[O-])c2s1)N1CCOCC1 | 0.3 | 0.1 (≈ 0.277 µM) | 
6 | N#Cc1cc(C(F)(F)F)cc2nc(C(=O)N3CCCCC3)sc12 |  | > 32 | 
7 | O=C(NCc1ccccn1)c1nc2cc(C(F)(F)F)ccc2s1 | > 100 | > 32 | 
8 | O=C(N[C@@H](CO)C(=O)N1CCCC1)c1nc2cc(C(F)(F)F)cc([N+](=O)[O-])c2s1 | 0.349 | 0.35 (≈ 0.809 µM) | 
9 | O=[N+]([O-])c1cc(C(F)(F)F)cc2nc(CN3CCOCC3)sc12 | 5.2 | > 32 | 
10 | O=C(c1nc2cc(C(F)(F)F)cc([N+](=O)[O-])c2s1)N1CCCCC1 | 0.213 | 0.7 (≈ 1.95 µM) | Activity (Salmonella typhimurium [9]): Toxic; Activity (Salmonella typhimurium [10]): Toxic; Activity (Salmonella typhimurium [11]): Toxic; Activity (Salmonella typhimurium [12]): Toxic
11 | Cc1c(C(F)(F)F)cc2nc(C(=O)NCc3ccccn3)sc2c1[N+](=O)[O-] | 1.2 | 0.3 (≈ 0.757 µM) | 
12 | O=C(c1nc2cc(C(F)(F)F)cc(-[n+]3cc([O-])on3)c2s1)N1CCCCC1 | 28.2 | 32 (≈ 80.3 µM) | 
13 | CNC(=O)c1cc([N+](=O)[O-])c2sc(C(=O)N3CCCCC3)nc2c1 | 53 | 32 (≈ 91.9 µM) | 
14 | Cc1c(C(F)(F)F)cc2nc(C(=O)N[C@@H](CO)C(=O)N3CCCC3)sc2c1[N+](=O)[O-] | 1.2 | 1 (≈ 2.24 µM) | 
15 | Cc1c(C(F)(F)F)cc2nc(C(=O)N3CCCCC3)sc2c1[N+](=O)[O-] | 2.2 | 0.25 (≈ 0.67 µM) | Activity (Salmonella typhimurium [3]): Non-toxic; Activity (Salmonella typhimurium [4]): Non-toxic; Activity (Salmonella typhimurium [5]): Non-toxic; MIC [13]: 0.5 µg/mL (≈ 1.34 µM); Activity (Salmonella typhimurium [6]): Non-toxic
16 | N#Cc1cc([N+](=O)[O-])c2sc(C(=O)N3CCCCC3)nc2c1 | 1.8 | 1 (≈ 3.16 µM) | 
17 | Cc1c(C(F)(F)F)cc2nc(C(=O)N[C@@H](CCO)C(=O)N3CCCCC3)sc2c1[N+](=O)[O-] | 1.2 | 0.7 (≈ 1.48 µM) | Activity [7]: 1 log10CFU/ml; Activity [8]: 1 log10CFU/ml
